Measured values: patent publication US6620828B2, “Thiazole compounds and pharmaceutical compositions for inhibiting protein kinases and methods for their use” (Agouron Pharmaceuticals, Inc., priority 1999, dated 2003)

How the values were obtained:
FL-CHK1 = target: T1, FL-CHK1 (Homo sapiens, UniProt O14757); assay: CHK1 assay; type: biochemical; parameters: CHK1^b: unit not given here; settings: Table A combinatorial examples; footnote b not given
T1 construct: C-terminally His-tagged full-length human CHK1 (FL-CHK1); 6xHis (C); made in house; host or cells: baculovirus/insect cells
T1 sequence (O14757 1-476): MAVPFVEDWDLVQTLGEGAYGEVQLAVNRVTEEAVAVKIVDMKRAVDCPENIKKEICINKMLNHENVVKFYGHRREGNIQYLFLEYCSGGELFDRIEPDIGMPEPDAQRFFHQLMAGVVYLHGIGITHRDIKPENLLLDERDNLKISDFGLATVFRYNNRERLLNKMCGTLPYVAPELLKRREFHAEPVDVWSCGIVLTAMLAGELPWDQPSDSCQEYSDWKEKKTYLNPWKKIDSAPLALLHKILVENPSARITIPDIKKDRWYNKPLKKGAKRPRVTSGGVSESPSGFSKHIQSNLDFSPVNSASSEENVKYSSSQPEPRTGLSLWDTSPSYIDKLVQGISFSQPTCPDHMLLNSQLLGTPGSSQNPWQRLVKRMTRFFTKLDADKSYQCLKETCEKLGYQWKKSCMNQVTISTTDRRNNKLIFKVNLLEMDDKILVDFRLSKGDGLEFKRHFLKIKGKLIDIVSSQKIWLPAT
Description: CHK-1 Construct for Assay: C-terminally His-tagged full-length human CHK1 (FL-CHK1) was expressed using the baculovirus/insect cell system. It contains 6 histidine residues (6×His-tag) at the C-terminus of the 476 amino acid human CHK1. The protein was purified by conventional chromatographic techniques.
The production of ADP from ATP that accompanies phosphoryl transfer to the synthetic substrate peptide Syntide-2 ([…]) was coupled to oxidation of NADH using phosphoenolpyruvate (PEP) through the actions of pyruvate kinase (PK) and lactic dehydrogenase (LDH). The oxidation of NADH was monitored by following the decrease of absorbance at 340 nm (ε340=6.22 cm^−1 mM^−1) using a HP8452 spectrophotometer. Typical reaction solutions contained: […]; 0.15 mM NADH; 28 units of LDH/ml; 16 units of PK/ml; 3 mM DTT; 0.125 mM Syntide-2; 0.15 mM ATP; 25 mM MgCl2 in 50 mM TRIS, pH 7.5; and 400 mM NaCl. Assays were initiated with 10 nM of FL-CHK1. Ki values were determined by measuring initial enzyme activity in the presence of varying concentrations of test compounds. The data were analyzed using Enzyme Kinetic and Kaleidagraph software.

CDK2/Cyclin A complex = CDK2/Cyclin A complex (Homo sapiens, UniProt P24941); assay: CDK2/Cyclin A assay; type: biochemical; parameters: CDK2^c: concentration or dose not given beside the values; settings: Table A combinatorial examples; footnote c not given
Description: CDK2/Cyclin A Construct for Assay: CDK2 was purified using published methodology (Rosenblatt et al., J. Mol. Biol., 230, 1317-1319 (1993)) from insect cells that had been infected with a baculovirus expression vector. Cyclin A was purified from E. coli cells expressing full-length recombinant cyclin A, and a truncated cyclin A construct was generated by limited proteolysis and purified as described previously (Jeffrey et al., Nature, 376, 313-320 (Jul. 27, 1995)).
CDK2/Cyclin A and CDK4/Cyclin D Assays
Cyclin-dependent kinase activity was measured by quantifying the enzyme-catalyzed, time-dependent incorporation of radioactive phosphate from [^32P]ATP into a recombinant fragment of the retinoblastoma protein. Unless noted otherwise, assays were performed in 96-well plates in a total volume of 50 μL, in the presence of 10 mM HEPES (N-[2-hydroxyethyl]piperazine-N′-[2-ethanesulfonic acid]) (pH 7.4), 10 mM MgCl2, 25 μM adenosine triphosphate (ATP), 1 mg/mL ovalbumin, 5 μg/mL leupeptin, 1 mM dithiothreitol, 10 mM β-glycerophosphate, 0.1 mM sodium vanadate, 1 mM sodium fluoride, 2.5 mM ethylene glycol-bis(β-aminoethyl ether)-N,N,N′N′-tetraacetic acid (EGTA), 2% (v/v) dimethylsulfoxide, and 0.03-0.2 μCi [^32P]ATP. The substrate (0.3-0.5 μg) was purified recombinant retinoblastoma protein fragment (Rb) (residues 386-928 of the native retinoblastoma protein; 62.3 kDa, containing the majority of the phosphorylation sites found in the native 106-kDa protein, as well as a tag of six histidine residues for ease of purification). Reactions were initiated with CDK2 (150 nM CDK2/Cyclin A complex) or CDK4 (50 nM CDK4/Cyclin D3 complex), incubated at 30° C., and terminated after 20 minutes by the addition of ethylenediaminetetraacetic acid EDTA) to 250 mM. The phosphorylated substrate was then captured on a nitrocellulose membrane using a 96-well filtration manifold, and unincorporated radioactivity was removed by repeated washing with 0.85% phosphoric acid. Radioactivity was quantified by exposing the dried nitrocellulose membranes to a phosphorimager. Apparent Ki values were measured by assaying enzyme activity in the presence of different compound concentrations and subtracting the background radioactivity measured in the absence of enzyme. The kinetic parameters (kcat, Km for ATP) were measured for each enzyme under the usual assay conditions by determining the dependence of initial rates on ATP concentration. The data were fit to an equation for competitive inhibition using Kaleidagraph (Synergy Software), or were fit to an equation for competitive tight-binding inhibition using the software KineTic (BioKin, Ltd.). Measured Ki values for known inhibitors against CDK4 and CDK2 agreed with published IC50 values. The specific activity of CDK4 was the same whether complexed to full-length cyclin D3 or the truncated Cyclin D3 construct; both complexes also yielded very similar Ki values for selected inhibitors.

Structure (SMILES): COc1cc(Nc2nc(N)c(-c3nc(-c4cccc(Br)c4)cs3)s2)cc(OC)c1OC
- CHK1^b (FL-CHK1): 13.5
- CDK2^c (CDK2/Cyclin A complex): 15.6

Structure (SMILES): COc1cc(Nc2nc(N)c(-c3nc(-c4cc(-c5ccccc5)no4)cs3)s2)cc(OC)c1OC
- CHK1^b (FL-CHK1): 2.7
- CDK2^c (CDK2/Cyclin A complex): 11.2

Structure (SMILES): COc1cc(Nc2nc(N)c(-c3nc(-c4sc5ccc(Cl)cc5c4C)cs3)s2)cc2c1OCCO2 [drawing 363]
- CHK1^b (FL-CHK1): 38.1
- CDK2^c (CDK2/Cyclin A complex): 12

Structure (SMILES): COc1cc(Nc2nc(N)c(-c3nc(-c4cccc([N+](=O)[O-])c4)cs3)s2)cc(OC)c1OC
- CHK1^b (FL-CHK1): 8.8
- CDK2^c (CDK2/Cyclin A complex): 6.6

Structure (SMILES): COc1cc(Nc2nc(N)c(-c3nc(-c4cc(-c5ccc(Cl)c(Cl)c5)no4)cs3)s2)cc(OC)c1OC
- CHK1^b (FL-CHK1): 0.9
- CDK2^c (CDK2/Cyclin A complex): 17.5

Structure (SMILES): COc1cc(Nc2nc(N)c(-c3nc(-c4ccc(Cl)c(C)c4)cs3)s2)cc(OC)c1OC
- CHK1^b (FL-CHK1): 11.7
- CDK2^c (CDK2/Cyclin A complex): −4.4

Structure (SMILES): COc1cc(Nc2nc(N)c(-c3nc(-c4ccc5c(c4)C(C)(C)CCC5(C)C)cs3)s2)cc2c1OCCO2
- CHK1^b (FL-CHK1): 22.4
- CDK2^c (CDK2/Cyclin A complex): 4.2

Structure (SMILES): COc1cc(Nc2nc(N)c(-c3nc(-c4c(C)c(C)c(C)c(C)c4C)cs3)s2)cc(OC)c1OC
- CHK1^b (FL-CHK1): 48.3
- CDK2^c (CDK2/Cyclin A complex): 19.8

Structure (SMILES): COc1cc(Nc2nc(N)c(-c3nc(-c4ccc(C)cc4)cs3)s2)cc(OC)c1OC
- CHK1^b (FL-CHK1): 3.7
- CDK2^c (CDK2/Cyclin A complex): −2.1

Structure (SMILES): COc1cc(Nc2nc(N)c(-c3nc(-c4c(-c5ccccc5)noc4C)cs3)s2)cc(OC)c1OC
- CHK1^b (FL-CHK1): 17.9
- CDK2^c (CDK2/Cyclin A complex): 13.6

Structure (SMILES): COc1cc(Nc2nc(N)c(-c3nc(-c4sc5ccccc5c4C)cs3)s2)cc2c1OCCO2
- CHK1^b (FL-CHK1): 4.7
- CDK2^c (CDK2/Cyclin A complex): 23.1

Structure (SMILES): COc1cc(Nc2nc(N)c(-c3nc(-c4ccccc4OC(C)=O)cs3)s2)cc(OC)c1OC
- CHK1^b (FL-CHK1): −7.4
- CDK2^c (CDK2/Cyclin A complex): 1.6

Structure (SMILES): CCOC(=O)c1ccccc1-c1csc(-c2sc(Nc3cc(OC)c(OC)c(OC)c3)nc2N)n1
- CHK1^b (FL-CHK1): 41.4
- CDK2^c (CDK2/Cyclin A complex): 4.4

Structure (SMILES): COc1cc(Nc2nc(N)c(-c3nc(-c4ccc(Cl)c(Cl)c4)cs3)s2)cc(OC)c1OC
- CHK1^b (FL-CHK1): 12.1
- CDK2^c (CDK2/Cyclin A complex): 7.3

Structure (SMILES): COc1cc(Nc2nc(N)c(-c3nc(-c4ccc5oc6ccccc6c5c4)cs3)s2)cc2c1OCCO2
- CHK1^b (FL-CHK1): 34.1
- CDK2^c (CDK2/Cyclin A complex): 19

Structure (SMILES): COc1cc(Nc2nc(N)c(-c3nc(-c4cc(C(C)(C)C)c(O)c(C(C)(C)C)c4)cs3)s2)cc(OC)c1OC
- CHK1^b (FL-CHK1): 25.3
- CDK2^c (CDK2/Cyclin A complex): 5.3

Structure (SMILES): COc1cc(OC)c(-c2csc(-c3sc(Nc4cc(OC)c(OC)c(OC)c4)nc3N)n2)c(O)c1Cl
- CHK1^b (FL-CHK1): 56
- CDK2^c (CDK2/Cyclin A complex): 11.8

Structure (SMILES): COc1cc(Nc2nc(N)c(-c3nc(-c4ccc(C#N)cc4)cs3)s2)cc(OC)c1OC
- CHK1^b (FL-CHK1): 10.3
- CDK2^c (CDK2/Cyclin A complex): 15.6

Structure (SMILES): COc1ccc(-c2csc(-c3sc(Nc4cc(OC)c(OC)c(OC)c4)nc3N)n2)c(OC)c1
- CHK1^b (FL-CHK1): 9.9
- CDK2^c (CDK2/Cyclin A complex): 4.9

Structure (SMILES): COc1cc(Nc2nc(N)c(-c3nc(-c4ccc5c(c4)OCCO5)cs3)s2)cc2c1OCCO2
- CHK1^b (FL-CHK1): 32.9
- CDK2^c (CDK2/Cyclin A complex): 5.4

Structure (SMILES): COc1cc(Nc2nc(N)c(-c3nc(-c4ccc(Cl)cc4)cs3)s2)cc(OC)c1OC
- CHK1^b (FL-CHK1): 11.2
- CDK2^c (CDK2/Cyclin A complex): 0.1

Structure (SMILES): CCN(CC)c1ccc(-c2csc(-c3sc(Nc4cc(OC)c(OC)c(OC)c4)nc3N)n2)cc1
- CHK1^b (FL-CHK1): 1.3
- CDK2^c (CDK2/Cyclin A complex): 6.3

Structure (SMILES): COc1cc(Nc2nc(N)c(-c3nc(-c4ccc(CC(=O)O)s4)cs3)s2)cc(OC)c1OC
- CHK1^b (FL-CHK1): 41.9
- CDK2^c (CDK2/Cyclin A complex): 26.7

Structure (SMILES): COc1ccc(OC)c(-c2csc(-c3sc(Nc4cc(OC)c(OC)c(OC)c4)nc3N)n2)c1
- CHK1^b (FL-CHK1): 6.1
- CDK2^c (CDK2/Cyclin A complex): 12.2

Structure (SMILES): COc1cc(Nc2nc(N)c(-c3nc(-c4cc(C(=O)C(Cl)(Cl)Cl)n(C)c4)cs3)s2)cc(OC)c1OC
- CHK1^b (FL-CHK1): 6.4
- CDK2^c (CDK2/Cyclin A complex): 3.9

Structure (SMILES): COc1cc(Nc2nc(N)c(-c3nc(-c4cc(Br)c(Cl)s4)cs3)s2)cc(OC)c1OC
- CHK1^b (FL-CHK1): 32
- CDK2^c (CDK2/Cyclin A complex): −0.2

Structure (SMILES): COc1cc(Nc2nc(N)c(-c3nc(-c4ccc(C)cc4C)cs3)s2)cc(OC)c1OC
- CHK1^b (FL-CHK1): 12
- CDK2^c (CDK2/Cyclin A complex): −1.2

Structure (SMILES): COc1ccc(-c2csc(-c3sc(Nc4cc(OC)c(OC)c(OC)c4)nc3N)n2)cc1 [drawing 336]
- CHK1^b (FL-CHK1): 15.3
- CDK2^c (CDK2/Cyclin A complex): −13

Structure (SMILES): COc1cc(Nc2nc(N)c(-c3nc(-c4ccccc4)cs3)s2)cc(OC)c1OC [drawing 372]
- CHK1^b (FL-CHK1): 14.1
- CDK2^c (CDK2/Cyclin A complex): −1

Structure (SMILES): COc1cc(Nc2nc(N)c(-c3nc(-c4ccc(-c5ccccc5)cc4)cs3)s2)cc(OC)c1OC
- CHK1^b (FL-CHK1): 18.7
- CDK2^c (CDK2/Cyclin A complex): 20.4

Structure (SMILES): COc1cc(Nc2nc(N)c(-c3nc(-c4ccc5ccccc5c4)cs3)s2)cc2c1OCCO2
- CHK1^b (FL-CHK1): 9.2
- CDK2^c (CDK2/Cyclin A complex): 11.6

Structure (SMILES): COc1ccc(-c2csc(-c3sc(Nc4cc(OC)c(OC)c(OC)c4)nc3N)n2)cc1 [drawing 362]
- CHK1^b (FL-CHK1): 29.4
- CDK2^c (CDK2/Cyclin A complex): 1.7

Structure (SMILES): COc1cc(Nc2nc(N)c(-c3nc(-c4ccc[nH]4)cs3)s2)cc(OC)c1OC
- CHK1^b (FL-CHK1): 31.3
- CDK2^c (CDK2/Cyclin A complex): 14.3

Structure (SMILES): COc1cc(Nc2nc(N)c(-c3nc(-c4cccc(OC(=O)c5ccccc5)c4)cs3)s2)cc(OC)c1OC
- CHK1^b (FL-CHK1): 23.9
- CDK2^c (CDK2/Cyclin A complex): −12.3

Structure (SMILES): COc1cc(Nc2nc(N)c(-c3nc(-c4cc(C)sc4C)cs3)s2)cc(OC)c1OC
- CHK1^b (FL-CHK1): 46.3
- CDK2^c (CDK2/Cyclin A complex): 7.3

Structure (SMILES): COc1cc(Nc2nc(N)c(-c3nc(-c4cc(F)c(C)c(Cl)c4)cs3)s2)cc(OC)c1OC
- CHK1^b (FL-CHK1): 30.9
- CDK2^c (CDK2/Cyclin A complex): −7.5

Structure (SMILES): CCc1cc2c(cc1-c1csc(-c3sc(Nc4cc(OC)c5c(c4)OCCO5)nc3N)n1)C(C)(C)CCC2(C)C
- CHK1^b (FL-CHK1): 10.4
- CDK2^c (CDK2/Cyclin A complex): 13.8
